Assay results: patent US20170348213A1, “Oral Care Composition” (Colgate-Palmolive Company, priority 2014, published 2017)

What was measured:
oral mucosal cells = assay: Cell irritating effect on oral mucosal cells (Janus Green B staining, optical microscope); type: cell-based; conditions: aqueous solution
Method: Aqueous solutions of different concentrations of sodium […] (SLS) and sodium methyl cocoyl taurate (SMCT) were prepared. The solutions were used to challenge oral mucosal cells. Treated cells were stained with Janus Green B and morphological changes were observed using an optical microscope to determine whether or not the cells had become irritated or remained intact. Cells were identified as normal if the cells were in tact, the cell wall was smooth, the color of the cell core was clear/dark, and if organelles could be identified. Cells were identified as irritated if the cells could not be clearly defined with a blurring of the cell wall, if there was crimping of the cell, if the color of the cell core and plasma is lighter than observed for an intact cell, and if organelles could not be identified. […]

[1] = Antioxidant activity, LPO-CC kit (Kamiya Biomedical Company); type: biochemical; conditions: agent at 1% in ethanol
Method: The antioxidant activity of rutin was tested using an LPO-CC kit (Kamiya Biomedical Company), and compared to that of vitamin E. (The agents were tested in an amount of 1% in ethanol). The lower the optical density, the better the antioxidant capacity. The higher the percentage cumeme hydroperoxide reduction, the better the antioxidant capacity. The antioxidant efficacy of the formulations was also tested using the methods described in Example 5. The results are illustrated in Table 9a and 9b.

Substance	Cell irritating effects of aqueous surfactant solutions: Results (oral mucosal cells; 0.48 % active weight surfactant)	Cell irritating effects of aqueous surfactant solutions: Results (oral mucosal cells; 1.40 % active weight surfactant)	Cell irritating effects of aqueous surfactant solutions: Results (oral mucosal cells; 1.71 % active weight surfactant)	Cell irritating effects of aqueous surfactant solutions: Results (oral mucosal cells; 2.20 % active weight surfactant)	% reduction of cumeme hydroperoxide ([1]; higher = better antioxidant capacity)	Optical Density at 675 nm ([1]; lower optical density = better antioxidant capacity)
sodium lauryl ether sulfate [SLS]	No cell irritation	Cells irritated	Cells irritated	Cells irritated		
vitamin E					50.4719%	0.2204
